Experimental data taken from patent US20060069132A1, “Azolecarboxamide herbicides” (priority 2004, published 2006).
Where two headings read alike, the source gives them in different places.

Assays:
bermudagrass = assay: Test C pre-/postemergence herbicide test; format: in vivo, Cynodon dactylon
Source text: (§1) Seeds of plant species selected from bermudagrass (Cynodon dactylon (L.) Pers.), Surinam grass (Urochloa decumbens (Staph) R. D. Webster, previously named Brachiaria decumbens Stapf), cocklebur (Xanthium strumarium L.), corn (Zea mays L.), large crabgrass (Digitaria sanguinalis (L.) Scop.), woolly cupgrass (Eriochloa villosa (Thunb.) Kunth), giant foxtail (Setaria faberi Herrm.), goosegrass (Eleusine indica (L.) Gaertn.), johnsongrass (Sorghum halepense (L.) Pers.), kochia (Kochia scoparia (L.) Schrad.), lambsquarters (Chenopodium album L.), morningglory (Ipomoea coccinea L.), eastern black nightshade (Solanum ptycanthum Dunal), yellow nutsedge (Cyperus esculentus L.), pigweed (Amaranthus retroflexus L.), common ragweed (Ambrosia elatior L.), soybean (Glycine max (L.) Merr.), common (oilseed) sunflower (Helianthus annuus L.) and velvetleaf (Abutilon theophrasti Medik.) were planted and treated preemergence with test chemicals formulated in a non-phytotoxic solvent mixture which included a surfactant.
(§2) At the same time, plants selected from these crop and weed species and also winter barley (Hordeum vulgare L.), blackgrass (Alopecurus myosuroides Huds.), canarygrass (Phalaris minor Retz.), chickweed (Stellaria media (L.) Vill.), downy bromegrass (Bromus tectorum L.), green foxtail (Setaria viridis (L.) Beauv.), Italian ryegrass (Lolium multiflorum Lam.), wheat (Triticum aestivum L.), wild oat (Avenafatua L.) and windgrass (Apera spica-venti (L.) Beauv.) were treated with postemergence applications of some of the test chemicals formulated in the same manner. Plants ranged in height from 2 to 18 cm (1- to 4-leaf stage) for postemergence treatments. Plant species in the flooded paddy test consisted of rice (Oryza sativa), smallflower umbrella sedge (Cyperus difformis L.), ducksalad (Heteranthera limosa (Sw.) Willd.) and barnyardgrass (Echinochloa crus-galli (L.) Beauv.) grown to the 2-leaf stage for testing. Treated plants and controls were maintained in a greenhouse for 12 to 14 days, after which time all species were compared to controls and visually evaluated. Plant response ratings, summarized in Table C, are based on a scale of 0 to 100 where 0 is no effect and 100 is complete control. A dash (-) response means no test result.

cocklebur = assay: Test C pre-/postemergence herbicide test; format: in vivo, Xanthium strumarium
Source text: as §1, §2

yellow nutsedge = assay: Test C pre-/postemergence herbicide test; format: in vivo, Cyperus esculentus
Source text: as §1, §2

ducksalad = assay: Test C flooded paddy test; format: in vivo, Heteranthera limosa; conditions: for Plant response rating, Ducksalad: 500 g ai/ha, visual rating after 12 to 14 days
eastern black nightshade = assay: Test C pre-/postemergence herbicide test; format: in vivo, Solanum ptycanthum; conditions: preemergence
Source text: as §1, §2

giant foxtail = assay: Test A pre-/postemergence herbicide test; format: in vivo, Setaria faberi; conditions: for pest or weed control at 500 g/ha / pest or weed control at 2000 g/ha: Setaria faberi, 240 h
Outline: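 Pre: seeded sandy loam, directed soil spray, compound in non-phytotoxic solvent + surfactant. Post: 1–2-leaf plants (2–10 cm), sprayed to runoff. Greenhouse ~10 d; visual injury vs untreated, 0–100 scale.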

[1] = Postemergence, 250 g ai/ha, scale 0 to 100, 0 no effect, 100 complete control
[2] = postemergence, 125 g ai/ha, scale 0 to 100
[3] = postemergence, 31 g ai/ha, scale 0 to 100
[4] = postemergence, 62 g ai/ha, scale 0 to 100
[5] = 250 g ai/ha, scale of 0 to 100, 0 is no effect, 100 is complete control
[6] = scale 0 to 100 (0 no effect, 100 complete control)
[7] = 62 g ai/ha, preemergence, scale 0 to 100, 0 no effect, 100 complete control
[8] = 250 g ai/ha, scale 0-100, preemergence
[9] = 500 g ai/ha, scale 0 to 100 (0 no effect, 100 complete control), visual, 12 to 14 days, preemergence
[10] = 62 g ai/ha, preemergence, scale 0 to 100
[11] = Postemergence, 500 g ai/ha, scale 0 to 100
[12] = Postemergence, 500 g ai/ha, scale 0 to 100, 0 no effect, 100 complete control

SMILES | Plant response rating, Bermudagrass (bermudagrass; [1]) | Plant response rating, Bermudagrass (bermudagrass; [2]) | Plant response rating, Bermudagrass (bermudagrass; [4]) | Plant response rating, Cocklebur (cocklebur; [1]) | Plant response rating, Cocklebur (cocklebur; [2]) | Plant response rating, Cocklebur (cocklebur; [4]) | Plant response rating, Nutsedge, Yellow (yellow nutsedge; [1]) | Plant response rating, Nutsedge, Yellow (yellow nutsedge; [2]) | Plant response rating, Nutsedge, Yellow (yellow nutsedge; [4]) | Ducksalad plant response rating (ducksalad; 62 g ai/ha, scale 0 to 100) | Ducksalad plant response rating (ducksalad; [5]) | Plant response rating, Ducksalad (ducksalad; [6]) | Plant response rating, Bermudagrass (bermudagrass; [7]) | Plant response rating (0 = no effect, 100 = complete control), Bermudagrass (bermudagrass; 125 g ai/ha, preemergence) | Plant response rating, Bermudagrass (bermudagrass; [8]) | Plant response rating, Bermudagrass (bermudagrass; [9]) | Plant response rating, Cocklebur (cocklebur; [10]) | Plant response rating (0 = no effect, 100 = complete control), Cocklebur (cocklebur; 125 g ai/ha, preemergence) | Plant response rating, Cocklebur (cocklebur; [8]) | Plant response rating, Cocklebur (cocklebur; [9]) | other results
CCOC(=O)c1cccc(NC(=O)c2cc(C3(C)CC3)nn2CC)c1 [Compound 295] | 0 | 0 | 0 | 10 | 5 | 5 | 5 | 5 | 5 | 0 | 25 | 30 |  |  |  |  |  |  |  |  | Plant response rating, Bermudagrass (bermudagrass; [3]): 0; Plant response rating, Cocklebur (cocklebur; [3]): 5; Ducksalad plant response rating (ducksalad; 125 g ai/ha, scale 0 to 100 (0 no effect, 100 complete control)): 0
CCc1nn(C(C)C)nc1C(=O)Nc1cccc(C(=O)N2CCCCC2)c1 [Compound 385] |  |  |  |  |  |  |  |  |  | 0 | 70 | 75 | 55 | 85 | 100 | 100 | 0 | 0 | 100 | 100 | Plant response rating, Nutsedge, Yellow (yellow nutsedge; [10]): 100; Plant response rating (0 = no effect, 100 = complete control), Nutsedge, Yellow (yellow nutsedge; 125 g ai/ha, preemergence): 100; Plant response rating, Nutsedge, Yellow (yellow nutsedge; [8]): 100; Plant response rating, Nutsedge, Yellow (yellow nutsedge; [9]): 100
CCNC(=S)c1cccc(NC(=O)c2nn(C(C)(C)C)nc2C)c1 [Compound 420] |  |  |  |  |  |  |  |  |  |  |  |  | 100 | 100 | 100 | 100 | 0 | 0 | 15 | 70 | Plant response rating, Nightshade (eastern black nightshade; 62 g ai/ha, scale 0 to 100): 80; Plant response rating (0 = no effect, 100 = complete control), Nightshade (eastern black nightshade; 125 g ai/ha): 90; Plant response rating, Nightshade (eastern black nightshade; 500 g ai/ha, scale 0 to 100 (0 no effect, 100 complete control), visual, 12 to 14 days): 100; Plant response rating, Nutsedge, Yellow (yellow nutsedge; [10]): 0; Plant response rating (0 = no effect, 100 = complete control), Nutsedge, Yellow (yellow nutsedge; 125 g ai/ha, preemergence): 0; Plant response rating, Nutsedge, Yellow (yellow nutsedge; [9]): 25
CCn1nc(C(C)(C)C)cc1C(=O)Nc1cccc(C(=O)OCCF)c1 [Compound 82, 2-fluoroethyl 3-[[[3-(1,1-dimethylethyl)-1-ethyl-1H-pyrazol-5-yl]-carbonyl]amino]benzoate] |  |  |  |  |  |  |  |  |  |  |  |  |  |  |  |  |  |  |  |  | pest or weed control at 500 g/ha (giant foxtail; post-emergence, Postemergence, 500 g ai/ha, 0 to 100 scale, 0 no effect, 100 complete control, read-out: Plant response rating, Foxtail, Giant): 20%; pest or weed control at 2000 g/ha (giant foxtail; post-emergence, Postemergence, 2000 g ai/ha, 0 to 100 scale, 0 no effect, 100 complete control, read-out: Plant response rating, Foxtail, Giant): 20%; pest or weed control at 500 g/ha (giant foxtail; pre-emergence, Preemergence, 500 g ai/ha, visual rating, 0 to 100 scale (0 no effect, 100 complete control), read-out: Foxtail, Giant plant response rating): 0%; pest or weed control at 2000 g/ha (giant foxtail; pre-emergence, Preemergence, 2000 g ai/ha, 0 to 100 scale, 0 no effect, 100 complete control, read-out: Foxtail, Giant plant response rating): 0%; pest or weed control at 250 g/ha (bermudagrass; Cynodon dactylon, post-emergence, 312 h, Postemergence, 250 g ai/ha, scale 0 to 100, read-out: Bermudagrass plant response rating): 0%; pest or weed control at 500 g/ha (bermudagrass; Cynodon dactylon, post-emergence, 312 h, Postemergence, 500 g ai/ha, scale 0 to 100, read-out: Bermudagrass plant response rating): 10%; pest or weed control at 125 g/ha (bermudagrass; Cynodon dactylon, post-emergence, 312 h, postemergence, 125 g ai/ha, scale 0 to 100, read-out: Plant response rating, Bermudagrass): 0%; pest or weed control at 62 g/ha (bermudagrass; Cynodon dactylon, post-emergence, 312 h, postemergence, 62 g ai/ha, scale 0 to 100, read-out: Plant response rating, Bermudagrass): 0%; pest or weed control at 500 g/ha (cocklebur; Xanthium strumarium, post-emergence, 312 h, Postemergence, 500 g ai/ha, scale 0 to 100, read-out: Cocklebur plant response rating): 20%; pest or weed control at 250 g/ha (cocklebur; Xanthium strumarium, post-emergence, 312 h, Postemergence, 250 g ai/ha, scale 0 to 100, 0 no effect, 100 complete control, read-out: Plant response rating, Cocklebur): 5%; pest or weed control at 125 g/ha (cocklebur; Xanthium strumarium, post-emergence, 312 h, postemergence, 125 g ai/ha, scale 0 to 100, read-out: Plant response rating, Cocklebur): 5%; pest or weed control at 62 g/ha (cocklebur; Xanthium strumarium, post-emergence, 312 h, postemergence, 62 g ai/ha, scale 0 to 100, read-out: Plant response rating, Cocklebur): 5%; pest or weed control at 250 g/ha (yellow nutsedge; Cyperus, post-emergence, Postemergence, 250 g ai/ha, scale 0 to 100, 0 no effect, 100 complete control, read-out: Plant response rating, Nutsedge, Yellow): 5%; pest or weed control at 125 g/ha (yellow nutsedge; Cyperus, post-emergence, postemergence, 125 g ai/ha, scale 0 to 100, read-out: Plant response rating, Nutsedge, Yellow): 5%; pest or weed control at 62 g/ha (yellow nutsedge; Cyperus, post-emergence, postemergence, 62 g ai/ha, scale 0 to 100, read-out: Plant response rating, Nutsedge, Yellow): 0%; Nutsedge, Yellow plant response rating (yellow nutsedge; [11]): 5
CCn1nc(C(C)(C)C)cc1C(=O)Nc1cc(OC(F)(F)F)ccc1F [Compound 338] | 0 | 0 | 0 | 5 | 0 | 0 | 0 | 0 | 0 |  |  |  |  |  |  |  |  |  |  |  | Foxtail, Giant plant response rating (giant foxtail; Postemergence, 500 g ai/ha, 0 to 100 scale, 0 no effect, 100 complete control): 20; Plant response rating, Foxtail, Giant (giant foxtail; Postemergence, 2000 g ai/ha, 0 to 100 scale, 0 no effect, 100 complete control): 30; Foxtail, Giant plant response rating (giant foxtail; Preemergence, 2000 g ai/ha, visual rating, 0 to 100 scale (0 no effect, 100 complete control)): 100; Foxtail, Giant plant response rating (giant foxtail; preemergence, 500 g ai/ha, visual injury, 0 to 100 scale (0 no effect, 100 complete control)): 80; Bermudagrass plant response rating (bermudagrass; [11]): 5; Plant response rating, Cocklebur (cocklebur; [12]): 5; Plant response rating, Nutsedge, Yellow (yellow nutsedge; [12]): 0
